Reference: patent US20220185832A1, “CD73 INHIBITORS” (BioArdis LLC, priority 2019, published 2022)

Tests used:
[1] = biological target: T1, Recombinant Human 5′-Nucleotidase (CD73) (Homo sapiens, UniProt P21589); test: CD73 Enzyme Assay; format: biochemical; conditions: 0.5 nM human CD73, 30 μM AMP, PiColorLock phosphate detection, OD 635 nm; read-out: Potency (IC50)
T1 construct: CHO derived CD73 (Trp27-Lys547), with a C-terminal 6-His tag; 6-His (C); purchased R&D 5795-EN; host or cells: CHO
T1 sequence (P21589 27-547): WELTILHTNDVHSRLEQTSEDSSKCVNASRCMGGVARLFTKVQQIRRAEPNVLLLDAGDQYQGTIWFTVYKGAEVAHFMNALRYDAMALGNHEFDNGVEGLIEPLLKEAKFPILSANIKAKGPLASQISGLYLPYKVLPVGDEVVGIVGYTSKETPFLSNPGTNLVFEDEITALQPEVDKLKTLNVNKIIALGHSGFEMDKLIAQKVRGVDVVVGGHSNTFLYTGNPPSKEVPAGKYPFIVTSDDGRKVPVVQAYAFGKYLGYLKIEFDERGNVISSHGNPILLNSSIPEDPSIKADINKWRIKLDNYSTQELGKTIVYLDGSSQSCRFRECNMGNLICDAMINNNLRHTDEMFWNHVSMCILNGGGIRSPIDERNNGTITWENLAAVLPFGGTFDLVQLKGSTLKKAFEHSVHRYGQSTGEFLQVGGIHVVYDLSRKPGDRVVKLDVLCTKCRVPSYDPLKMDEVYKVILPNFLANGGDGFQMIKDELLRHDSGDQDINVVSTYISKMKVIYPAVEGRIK
In short: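 CHO-derived human CD73 (Trp27-Lys547, C-terminal His tag; 0.5 nM) preincubated with compound 15 min at 25° C in Tris pH 7.5 with MgCl2 and Tween-20. Reaction with 30 μM AMP ran 20 min at 37° C; released phosphate read by malachite green at 635 nm, IC50 from 4-parameter logistic fit.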

[2] = biological target: T2, Cell surface CD73 of U87 MG human glioblastoma cells (Homo sapiens, UniProt P21589); test: CD73 Cellular Assay; format: cell-based; conditions: 5000 cells per well, 30 μM AMP, PiColorLock phosphate detection in supernatant, read-out: Potency (IC50)
T2 construct: Cell surface CD73 catalyzes the conversion of adenosine monophosphate (AMP) to adenosine and inorganic phosphate; endogenous in cells; host or cells: U87 MG human glioblastoma cells
T2 sequence (P21589 27-549): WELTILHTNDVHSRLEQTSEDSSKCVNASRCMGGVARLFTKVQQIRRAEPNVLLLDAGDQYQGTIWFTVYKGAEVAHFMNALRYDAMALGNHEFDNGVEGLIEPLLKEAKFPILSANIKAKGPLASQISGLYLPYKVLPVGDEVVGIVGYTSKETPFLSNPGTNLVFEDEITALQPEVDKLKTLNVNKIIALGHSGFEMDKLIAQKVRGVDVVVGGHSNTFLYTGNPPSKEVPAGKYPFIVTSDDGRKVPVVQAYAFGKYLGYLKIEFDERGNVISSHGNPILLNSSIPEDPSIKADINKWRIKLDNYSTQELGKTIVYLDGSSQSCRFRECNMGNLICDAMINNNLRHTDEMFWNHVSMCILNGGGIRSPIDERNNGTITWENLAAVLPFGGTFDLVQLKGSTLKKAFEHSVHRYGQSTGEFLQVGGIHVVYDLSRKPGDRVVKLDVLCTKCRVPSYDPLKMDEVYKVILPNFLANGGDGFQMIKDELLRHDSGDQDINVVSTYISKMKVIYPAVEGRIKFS
Description: Cell surface CD73 catalyzes the conversion of adenosine monophosphate (AMP) to adenosine and inorganic phosphate. U87 MG human glioblastoma cells express high level of CD73. Cells are treated with compounds in a 96-well assay plate and supernatants are collected into a 384-well detection plate. The concentration of inorganic phosphate (Pi) in the supernatants is determined using the phosphate detection reagent, PiColorLock™ (Innova Bioscience, Cat #303-0125) following the manufacturer's instructions.
Briefly, on the day of the assay, U87 MG cells were harvested and resuspended in assay buffer which consisted of 20 mM HEPES, pH=7.4, 137 mM NaCl, 5.4 mM KCl, 1.3 mM CaCl2, 4.2 mM NaHCO3 and 0.1% glucose. To test the effect of compounds on cellular CD73 enzymatic activity, 500 nL/well of compounds dissolved in DMSO were added to a 96-well TC-treated microplate (Corning #3599). Next, 80 μL/well of U87 MG cells in assay buffer were added to assay plate. After 30 minutes of incubation in an atmosphere of 5% CO2 at 37° C., 20 μL/well of 150 μM AMP (Adenosine 5′-monophosphate monohydrate, Sigma, Cat #01930) in assay buffer was added to assay plate. Final assay conditions consisted of 5000 cells per well in 0.5% DMSO and 30 μM AMP substrate. After 50 minutes of incubation in an atmosphere of 5% CO2 at 37° C., 50 μL/well of supernatant was transferred to the 384-well detection plate (Corning® NBSTM 384 well plates, Cat #3640). Meanwhile “Gold mix” was prepared shortly before use by adding 1/100 volume of accelerator to the PiColorLock™ Gold reagent. 12 μL/well of the “Gold mix” was added to detection plate containing 50 μL/well of supernatant and incubated at 25° C. for 5 minutes. 5 μL/well stabilizer was added to the detection plate and incubated at 25° C. for 30 minutes. The absorbance at 635 nm was measured on a Spark 10M instrument (TECAN).
The percent (%) inhibition at each concentration of a compound was calculated relative to the OD value in the Max and Min control wells contained within each assay plate. The Max control wells contained cells and substrate as 0% inhibition, and the Min control wells only contained cells as 100% inhibition. The concentrations and percent inhibition values for a test compound are plotted and the concentration of the compound required to achieve 50% inhibition (IC50) was determined with a four-parameter logistic dose response equation.

Row | SMILES | IC50 [1] [nM] | IC50 [2] [nM]
1 | O=P(O)(O)CP(=O)(O)OC[C@H]1O[C@@H](c2ccc3c(NCc4ccccc4Cl)nc(Cl)nc3c2)[C@H](O)[C@@H]1O [Compound 23, (((((2R,3S,4R,5S)-5-(2-chloro-4((2-chlorobenzyl)amino)quinazolin-7-yl)-3,4-dihydroxytetrahydrofuran-2-yl)methoxy)(hydroxy)phosphoryl)methyl)phosphonic acid] | < 10 | < 10
2 | O=P(O)(O)CP(=O)(O)OC[C@H]1O[C@@H](c2ccc3c(NC4CCc5ccccc54)nc(Cl)nc3c2)[C@H](O)[C@@H]1O (stereo partly drawn) [Compound 25, [({[(2R,3S,4R,5S)-5-[2-chloro-4-(2,3-dihydro-1H-inden-1-ylamino)quinazolin-7-yl]-3,4-dihydroxyoxolan-2-yl]methoxy}(hydroxy)phosphoryl)methyl]phosphonic acid] | < 10 | < 10
3 | O=P(O)(O)CP(=O)(O)OC[C@H]1O[C@@H](c2ccc3c(NCC4CCCC(O)C4)nc(Cl)nc3c2)[C@H](O)[C@@H]1O (stereo partly drawn) [Compound 28, (((((2R,3S,4R,5S)-5-(2-chloro-4-(((3-hydroxycyclohexyl)methyl)amino)quinazolin-7-yl)-3,4-dihydroxytetrahydrofuran-2-yl)methoxy)(hydroxy)phosphoryl)methyl)phosphonic acid] | < 10 | 100 to 999
4 | O=P(O)(O)CP(=O)(O)OC[C@H]1O[C@@H](c2ccc3c(NC4CCCCC4)nc(Cl)nc3c2)[C@H](O)[C@@H]1O [Compound 31, (((((2R,3S,4R,5S)-5-(2-chloro-4-(cyclohexylamino)quinazolin-7-yl)-3,4-dihydroxytetrahydrofuran-2-yl)methoxy)(hydroxy)phosphoryl)methyl)phosphonic acid] | < 10 | < 10
5 | O=P(O)(O)CP(=O)(O)OC[C@H]1O[C@@H](c2ccc3c(NC4CCCC4)ncnc3c2)[C@H](O)[C@@H]1O [Compound 46, [({[(2R,3S,4R,5S)-5-[4-(cyclopentylamino)quinazolin-7-yl]-3,4-dihydroxyoxolan-2-yl]methoxy}(hydroxy)phosphoryl)methyl]phosphonic acid] | < 10 | > 1000
